Reference: PMC12856912, “Structure-Guided Semisynthesis of Blasticidin S–Amicetin Chimeras as Selective Ribosome Inhibitors” (Journal of the American Chemical Society, 2026)
Values after ≈ are worked out from the molar mass of the structure shown.

Legend:
[1] = tested on: Vancomycin resistant E. faecalis NR-31972 (VRE); assay: Antibacterial MIC assay, serial dilution; format: cell-based, Enterococcus faecalis; details: for Selectivity index (CC50/MIC) VRE NR-31972: CC50 Vero cells / MIC; for MIC: Enterococcus faecalis, VRE, 24 h, read-out: MIC Vancomycin resistant E. faecalis NR-31972 (VRE)
Procedure, shortened: (§1)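 OD600 read-out, normalized to doxycycline and vehicle controls; MIC = lowest concentration inhibiting >90% of growth. Serial dilutions at final 128–1 μg/mL in CAMHB, inoculum OD600 0.004, 37 °C for 16–18 h (VRE 24 h). Two biological replicates in duplicate.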

Vero cells = assay: Cytotoxicity assay (MTS/PMS); format: cell-based; details: Vero cells, chimera vs parent of its series
Procedure, shortened: (§2)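 CC50 (µg/mL) was taken as the compound level that lowered vehicle-normalized viability to 50%, from MTS/PMS absorbance at 490 nm after 4 h with reagent. Monkey kidney Vero cells in DMEM/10% FBS received serial dilutions for 24 h at 37 °C, in three biological replicates.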

[2] = Cytotoxicity assay (MTS/PMS); format: cell-based; details: monkey, Vero cells (monkey kidney epithelial cells); 24 h treatment, MTS/PMS, average of three biological replicates; read-out: CC50 against Vero cells
Procedure, shortened: as §2

[3] = tested on: Methicillin resistant S. aureus (MRSA) USA300; assay: Antibacterial MIC assay, serial dilution; format: cell-based, Staphylococcus aureus; details: for Selectivity index (CC50/MIC) MRSA USA300: CC50 Vero cells / MIC; for MIC: Staphylococcus aureus, read-out: MIC Methicillin resistant S. aureus (MRSA) USA300
[4] = tested on: Escherichia coli BAA-2452; assay: Antibacterial MIC assay, serial dilution; format: cell-based; details: BAA2452, read-out: MIC Escherichia coli BAA-2452
Pseudomonas aeruginosa = assay: Antibacterial MIC assay, serial dilution; format: cell-based; details: for Selectivity index (CC50/MIC) P. aeruginosa: CC50 Vero cells / MIC; for MIC: Pseudomonas aeruginosa, range from biological replicates, read-out: MIC P. aeruginosa
Procedure, shortened: as §1

[5] = tested on: Vancomycin resistant Enterococcus faecium NR-31909 (VRE); assay: Antibacterial MIC assay, serial dilution; format: cell-based; details: for MIC: Enterococcus faecium, VRE, 24 h, read-out: MIC Vancomycin resistant Enterococcus faecium NR-31909 (VRE)
Procedure, shortened: as §1

[6] = tested on: Enterococcus faecalis ATCC 29212; assay: Antibacterial MIC assay, serial dilution; format: cell-based; details: for Selectivity index (CC50/MIC) E. faecalis 29212: CC50 Vero cells / MIC; for MIC: Enterococcus faecalis, ATCC 29112 / ATCC 29212, 24 h, read-out: MIC E. faecalis ATCC 29112
[7] = tested on: Acinetobacter baumannii ATCC 17978; assay: Antibacterial MIC assay, serial dilution; format: cell-based; details: ATCC17978, range from biological replicates
Procedure, shortened: as §1

[8] = tested on: Klebsiella pneumoniae ATCC 29665; assay: Antibacterial MIC assay, serial dilution; format: cell-based; details: for MIC: Klebsiella pneumoniae, ATCC29665, range from biological replicates, read-out: MIC K. pneumoniae ATCC-29665
Procedure, shortened: as §1

S. aureus ΔNorA = assay: Antibacterial MIC assay, serial dilution; format: cell-based, Staphylococcus aureus; details: for Selectivity index (CC50/MIC) S. aureus ΔNorA: CC50 Vero cells / MIC; for MIC: Staphylococcus aureus, read-out: MIC S. aureus ∆NorA
Procedure, shortened: as §1

S. aureus ATCC 6538P = assay: Antibacterial MIC assay, serial dilution; format: cell-based, Staphylococcus aureus; details: for Selectivity index (CC50/MIC) S. aureus 6538P: CC50 Vero cells / MIC; for MIC: Staphylococcus aureus, ATCC 6538P / ATCC 6539P, read-out: MIC S. aureus ATCC 6539P
Procedure, shortened: as §1

MRSA ATCC 43300 = assay: Antibacterial MIC assay, serial dilution; format: cell-based, Staphylococcus aureus; details: for Selectivity index (CC50/MIC) MRSA 43300: CC50 Vero cells / MIC; for MIC: Staphylococcus aureus, read-out: MIC MRSA ATCC 43300
Procedure, shortened: as §1

[9] = tested on: Methicillin resistant Staphylococcus epidermidis (MRSE) ATCC 35984 NRS101; assay: Antibacterial MIC assay, serial dilution; format: cell-based; details: for Selectivity index (CC50/MIC) MRSE 35984: CC50 Vero cells / MIC; for MIC: Staphylococcus epidermidis, read-out: MIC Methicillin resistant Staphylococcus epidermidis (MRSE) ATCC 35984 NRS101
bacteria = assay: Antibacterial assays, summary statements over the panel; format: cell-based; details: against most S. aureus strains
Method: Media and solutions were autoclaved or sterile filtered prior to use and mani pulations were carri ed out in a laminar flow hood. Antibacterial t esting was performed in polypropylene 96-well flat bottom plates. The minimal inhibitory concentration of blasticidin S (1) hydrochloride, methyl ester (3) trihydrochloride, P10 (2) tri-T FA , phenet hyl amide (4) tri -T FA , an d blastimidines M 19– 22, A, 29–32, P 37–40, and C 43–46 (salt forms as described in the te xt) were assessed against Staphylococcus aureus ΔNorA, S. aureus ATCC 6538P, methicillin-resistant S. aureus (MRSA) ATCC 43300, Enterococcus faecalis ATCC 29212, vancomycin- resistant Enterococcus, Klebsiella pneumoniae ATCC 29665, Pseudomonas aeruginosa,and Acinetobacter baumannii ATCC 17978 using serial dilutions. Doxycycline (Gold Bio) as a positive control and the vehicle as a negative control. Stock solutions of each compound were prepared at 2.56 mg/mL in 50% DMSO/water and serially diluted in 50% DMSO/water to create master plates. […]
Growth controls (wells with inoculated media but no vehicle or test compounds) were included to assess any potential toxicity from the vehicle. […] Inh ibition was determined by measuring the optical density at 600 nm (OD60 0) with a Cytation 3 pl ate read er (BioTek). […]

MRSA USA-300 = format: cell-based, Staphylococcus aureus; details: for bacteriostatic or bactericidal effect in time-kill assay: 5× MIC and 10× MIC
Method: MRSA USA-300 was grown overnight in cation- adjusted Muell er-Hinton broth (CAMHB), then subcultured into fresh CAMHB and incubated aerobi cally at 37°C until reaching the logarithmic phase, corresponding to an optical density (OD₆₀₀) of 0.2. The bacterial cultures were further diluted to adjust to a final concentration of 5 × 10⁵ CFU/mL in CAMHB. P3, P5, vancomycin and linezolid, were added at concentrations of 5× and 10× MIC. A DMSO-treated […]
culture serv ed as an untreated control. The cultures were aerobically maintai ned at 37°C in shaking incubator. At specifi c sampling times, aliquots were collected, resuspended in phosphate-buffered saline (PBS) and distributed to three replicates on tryptic soy agar (TSA). After a 24-hour incubation period at 37°C, the number of colony- forming units (CFUs) was evaluated.
F i g u re S 1. Time kill results against MRSA USA 300 at 5X and 10X MIC. Compound P3 ( 38) is shown as red squares, compound P5( 40) is shown as green tri angles. Vancomycin (inverted purple triangle) is used as a b act ericidal control and linezolid (orange diamond) as a bacteriostatic control with DMSO (blue circles ) as a neg ative control. […]

Row | Compound | Selectivity index (CC50/MIC) VRE NR-31972 [1] | MIC [1] [µg/mL] | CC50 at 24 h [2] [µg/mL] | Selectivity index (CC50/MIC) MRSA USA300 [3] | MIC [3] [µg/mL] | MIC [4] [µg/mL] | Selectivity index (CC50/MIC) P. aeruginosa (Pseudomonas aeruginosa) | MIC (Pseudomonas aeruginosa) [µg/mL] | MIC [5] [µg/mL] | Selectivity index (CC50/MIC) E. faecalis 29212 [6] | MIC [6] [µg/mL] | MIC [7] [µg/mL] | MIC [8] [µg/mL] | Selectivity index (CC50/MIC) S. aureus ΔNorA (S. aureus ΔNorA) | MIC (S. aureus ΔNorA) [µg/mL] | Selectivity index (CC50/MIC) S. aureus 6538P (S. aureus ATCC 6538P) | MIC (S. aureus ATCC 6538P) [µg/mL] | Selectivity index (CC50/MIC) MRSA 43300 (MRSA ATCC 43300) | MIC (MRSA ATCC 43300) [µg/mL] | Selectivity index (CC50/MIC) MRSE 35984 [9] | also measured
1 | CC(=O)Nc1ccc(C(=O)Nc2ccn([C@H]3C=C[C@H](NC(=O)C[C@@H](N)CCN(C)C(=N)N)[C@@H](C(=O)O)O3)c(=O)n2)cc1 [Blastimidine C4] | <1.6 | > 128 | 203 (≈ 348 µM) | <1.6 | > 128 | > 128 | <1.6 | > 128 | > 128 | <1.6 | > 128 | > 128 | 128 (≈ 219 µM) | <1.6 | > 128 | <1.6 | > 128 | <1.6 | > 128 | <1.6 | fold lower cytotoxicity relative to parent molecule (Vero cells): > 10 fold; MIC [9]: > 128 µg/mL
2 | CNc1ccc(C(=O)Nc2ccn([C@H]3C=C[C@H](NC(=O)C[C@@H](N)CCN(C)C(=N)N)[C@@H](C(=O)OC)O3)c(=O)n2)cc1 [Blastimidine M3] | 13 | 16 (≈ 28.1 µM) | 205 (≈ 360 µM) | 26 | 8 (≈ 14 µM) | 32 (≈ 56.2 µM) | <1.6 | > 128 | 64 (≈ 112 µM) | 13 | 16 (≈ 28.1 µM) | > 128 | 32 (≈ 56.2 µM) | 26 | 8 (≈ 14 µM) | 26 | 8 (≈ 14 µM) | 13 | 16 (≈ 28.1 µM) | 26 | Selectivity index (SI) (bacteria): > 25; Selectivity index (CC50/MIC) VRE NR-31909 ([5]; CC50 Vero cells / MIC): 3.2; Selectivity index (CC50/MIC) K. pneumoniae ([8]; CC50 Vero cells / MIC): 6.4; MIC [9]: 8 µg/mL (≈ 14 µM)
3 | CC(=O)NC[C@H]1CN(c2ccc(N3CCOCC3)c(F)c2)C(=O)O1 [linezolid, reference compound] |  |  |  |  |  |  |  |  |  |  |  |  |  |  |  |  |  |  |  |  | bacteriostatic or bactericidal effect in time-kill assay (MRSA USA-300): bacteriostatic activity
4 | CN[C@H](CC(C)C)C(=O)N[C@H]1C(=O)N[C@@H](CC(N)=O)C(=O)N[C@H]2C(=O)N[C@H]3C(=O)N[C@H](C(=O)N[C@H](C(=O)O)c4cc(O)cc(O)c4-c4cc3ccc4O)[C@H](O)c3ccc(c(Cl)c3)Oc3cc2cc(c3O[C@@H]2O[C@H](CO)[C@@H](O)[C@H](O)[C@H]2O[C@H]2C[C@](C)(N)[C@H](O)[C@H](C)O2)Oc2ccc(cc2Cl)[C@H]1O [vancomycin, reference compound] |  |  |  |  |  |  |  |  |  |  |  |  |  |  |  |  |  |  |  |  | bacteriostatic or bactericidal effect in time-kill assay (MRSA USA-300): bactericidal activity; time to bactericidal activity (MRSA USA-300; time-kill assay): ≤ 8 h
